# Columns and labels:
# [1] = tested on: MRC5; assay: MTS proliferation assay; format: cell-based; details: MRC5, 72 h
# In short: (§1)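 Cells were exposed for 72 h under culture conditions to test compounds at final concentrations of 10, 3, 1 and 0.3 μM, added in complete medium with at most 5% DMSO. MTS reagent was then added for a further 3 h, and absorbance was read at 492 nm.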
# [2] = tested on: HeLa; assay: MTS proliferation assay; format: cell-based, human; details: 72 h
# In short: as §1
# [3] = tested on: Jurkat; assay: MTS proliferation assay; format: cell-based, human; details: 72 h
# In short: as §1
# [4] = Hoechst 33342 nuclear staining; format: cell-based; details: for Hoechst 33342 nuclear staining score, H460: H460 cells; for Hoechst 33342 nuclear staining score, HeLa: HeLa cells; for Hoechst 33342 nuclear staining score, Jily: Jily cells; for Hoechst 33342 nuclear staining score, Jurkat: Jurkat cells; for Hoechst 33342 nuclear staining score, MRC5: MRC5 cells; on Hoechst 33342 nuclear staining score, PBLs: key: 0: no activity; 1: weak activity comprising less than 50% of the cells; 2: strong activity comprising more than 50% of the cells;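 on all read-outs here: apoptotic nuclei scored 0 none 1 weak under 50% of cells 2 strong over 50% of cells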
# In short: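 Cells were plated in 96 well tissue culture plates in 80 μl complete medium, with 3-5*10^3 cells per well for adherent lines and 8-10*10^3 for suspension lines. Adherent cells spread for 24 h before treatment, while suspension cells were treated right after seeding. Compounds were added in 20 μl complete medium containing max 5% DMSO.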
# [5] = conc 0.1 (final concentrations in μM), 24 h or 48 h incubation
# [6] = conc 0.3 (final concentrations in μM), 24 h or 48 h incubation
# [7] = conc 1 (final concentrations in μM), 24 h or 48 h incubation
# [8] = conc 3 (final concentrations in μM), 24 h or 48 h incubation
# [9] = conc 10 (final concentrations in μM), 24 h or 48 h incubation
SMILES,IC50 [1] [µM],IC50 [2] [µM],IC50 [3] [µM],"Hoechst 33342 nuclear staining score, H460 ([4]; conc 0.1)","Hoechst 33342 nuclear staining score, H460 ([4]; conc 0.3)","Hoechst 33342 nuclear staining score, H460 ([4]; conc 1)","Hoechst 33342 nuclear staining score, H460 ([4]; conc 3)","Hoechst 33342 nuclear staining score, HeLa ([4]; conc 0.1)","Hoechst 33342 nuclear staining score, HeLa ([4]; conc 0.3)","Hoechst 33342 nuclear staining score, HeLa ([4]; conc 1)","Hoechst 33342 nuclear staining score, HeLa ([4]; conc 3)","Hoechst 33342 nuclear staining score, Jily ([4]; conc 0.1)","Hoechst 33342 nuclear staining score, HeLa [4, 5]","Hoechst 33342 nuclear staining score, HeLa [4, 6]","Hoechst 33342 nuclear staining score, HeLa [4, 7]","Hoechst 33342 nuclear staining score, HeLa [4, 8]","Hoechst 33342 nuclear staining score, Jurkat [4, 5]","Hoechst 33342 nuclear staining score, Jurkat [4, 6]","Hoechst 33342 nuclear staining score, Jurkat [4, 7]","Hoechst 33342 nuclear staining score, Jurkat [4, 8]",further results
COc1cc(-c2cc(CNc3ccc4[nH]nnc4c3)cn2S(=O)(=O)c2ccc(C)cc2)cc(OC)c1OC [Example 69],> 1,> 1,< 1,0,0,0,2 (strong activity comprising more than 50% of the cells),0,0,0,2 (strong activity comprising more than 50% of the cells),0,,,,,,,,,"Hoechst 33342 nuclear staining score, Jily ([4]; conc 0.3): 0; Hoechst 33342 nuclear staining score, Jily ([4]; conc 1): 1 (weak activity comprising less than 50% of the cells); Hoechst 33342 nuclear staining score, Jily ([4]; conc 3): 2 (strong activity comprising more than 50% of the cells); Hoechst 33342 nuclear staining score, Jurkat ([4]; conc 0.1): 0; Hoechst 33342 nuclear staining score, Jurkat ([4]; conc 0.3): 0; Hoechst 33342 nuclear staining score, Jurkat ([4]; conc 1): 2 (strong activity comprising more than 50% of the cells); Hoechst 33342 nuclear staining score, Jurkat ([4]; conc 3): 2 (strong activity comprising more than 50% of the cells); Hoechst 33342 nuclear staining score, MRC5 ([4]; conc 0.1): 0; Hoechst 33342 nuclear staining score, MRC5 ([4]; conc 0.3): 0; Hoechst 33342 nuclear staining score, MRC5 ([4]; conc 1): 0; Hoechst 33342 nuclear staining score, MRC5 ([4]; conc 3): 2 (strong activity comprising more than 50% of the cells); Hoechst 33342 nuclear staining score, PBLs ([4]; conc 0.1): 0; Hoechst 33342 nuclear staining score, PBLs ([4]; conc 0.3): 0; Hoechst 33342 nuclear staining score, PBLs ([4]; conc 1): 0; Hoechst 33342 nuclear staining score, PBLs ([4]; conc 3): 0"
Cc1ccc(S(=O)(=O)n2cc(CNCCCN3CCCC3)cc2-c2ccc3c(c2)OCO3)cc1 [Example 22],> 1,> 1,> 1,,,,,,,,,,0,0,0,0,0,0,0,0,
CCCCOc1ccc(S(=O)(=O)n2cc(-c3cccnc3)cc2-c2cc(OC)c(OC)c(OC)c2)cc1 [Example 78],> 1,> 1,> 1,0,0,0,0,0,0,0,0,0,,,,,,,,,"Hoechst 33342 nuclear staining score, Jily ([4]; conc 0.3): 0; Hoechst 33342 nuclear staining score, Jily ([4]; conc 1): 0; Hoechst 33342 nuclear staining score, Jily ([4]; conc 3): 0; Hoechst 33342 nuclear staining score, Jurkat ([4]; conc 0.1): 0; Hoechst 33342 nuclear staining score, Jurkat ([4]; conc 0.3): 0; Hoechst 33342 nuclear staining score, Jurkat ([4]; conc 1): 0; Hoechst 33342 nuclear staining score, Jurkat ([4]; conc 3): 0; Hoechst 33342 nuclear staining score, MRC5 ([4]; conc 0.1): 0; Hoechst 33342 nuclear staining score, MRC5 ([4]; conc 0.3): 0; Hoechst 33342 nuclear staining score, MRC5 ([4]; conc 1): 0; Hoechst 33342 nuclear staining score, MRC5 ([4]; conc 3): 0; Hoechst 33342 nuclear staining score, PBLs ([4]; conc 0.1): 0; Hoechst 33342 nuclear staining score, PBLs ([4]; conc 0.3): 0; Hoechst 33342 nuclear staining score, PBLs ([4]; conc 1): 0; Hoechst 33342 nuclear staining score, PBLs ([4]; conc 3): 0"
CCN(CC)CCN(C)Cc1cc(-c2ccc3c(c2)OCO3)n(S(=O)(=O)c2ccc(C)cc2)c1 [Example 19],> 1,> 1,> 1,,,,,,,,,,0,0,0,0,0,0,0,0,
COc1cc(-c2cc(CNc3ccc(-n4cncn4)cc3)cn2S(=O)(=O)c2ccc(C)cc2)cc(OC)c1OC [Example 68],> 1,< 1,< 1,0,0,2 (strong activity comprising more than 50% of the cells),2 (strong activity comprising more than 50% of the cells),0,0,0,2 (strong activity comprising more than 50% of the cells),0,,,,,,,,,"Hoechst 33342 nuclear staining score, Jily ([4]; conc 0.3): 0; Hoechst 33342 nuclear staining score, Jily ([4]; conc 1): 2 (strong activity comprising more than 50% of the cells); Hoechst 33342 nuclear staining score, Jily ([4]; conc 3): 2 (strong activity comprising more than 50% of the cells); Hoechst 33342 nuclear staining score, Jurkat ([4]; conc 0.1): 0; Hoechst 33342 nuclear staining score, Jurkat ([4]; conc 0.3): 0; Hoechst 33342 nuclear staining score, Jurkat ([4]; conc 1): 2 (strong activity comprising more than 50% of the cells); Hoechst 33342 nuclear staining score, Jurkat ([4]; conc 3): 2 (strong activity comprising more than 50% of the cells); Hoechst 33342 nuclear staining score, MRC5 ([4]; conc 0.1): 0; Hoechst 33342 nuclear staining score, MRC5 ([4]; conc 0.3): 0; Hoechst 33342 nuclear staining score, MRC5 ([4]; conc 1): 0; Hoechst 33342 nuclear staining score, MRC5 ([4]; conc 3): 2 (strong activity comprising more than 50% of the cells); Hoechst 33342 nuclear staining score, PBLs ([4]; conc 0.1): 0; Hoechst 33342 nuclear staining score, PBLs ([4]; conc 0.3): 0; Hoechst 33342 nuclear staining score, PBLs ([4]; conc 1): 0; Hoechst 33342 nuclear staining score, PBLs ([4]; conc 3): 0"
Cc1ccc(S(=O)(=O)n2cc(CNc3ccc(N4CCOCC4)cc3N3CCOCC3)cc2-c2ccc3c(c2)OCO3)cc1 [Example 39],> 1,> 1,> 1,,,,,,,,,,,0,0,0,,0,0,0,"Hoechst 33342 nuclear staining score, HeLa [4, 9]: 0; Hoechst 33342 nuclear staining score, Jurkat [4, 9]: 0"
CCN(CC)CCNCc1cc(-c2ccc3c(c2)OCO3)n(S(=O)(=O)c2ccc(C)cc2)c1 [Example 20],> 1,> 1,> 1,,,,,,,,,,0,0,0,0,0,0,0,0,
Cc1ccc(S(=O)(=O)n2cc(-c3ccc(C#N)cc3)cc2-c2cccs2)cc1 [Example 54],> 1,> 1,< 1,,,,,,,,,,0,0,0,0,0,0,0,0,"Hoechst 33342 nuclear staining score, H460 [4, 5]: 0; Hoechst 33342 nuclear staining score, H460 [4, 6]: 0; Hoechst 33342 nuclear staining score, H460 [4, 7]: 0; Hoechst 33342 nuclear staining score, H460 [4, 8]: 0; Hoechst 33342 nuclear staining score, Jily [4, 5]: 0; Hoechst 33342 nuclear staining score, Jily [4, 6]: 0; Hoechst 33342 nuclear staining score, Jily [4, 7]: 0; Hoechst 33342 nuclear staining score, Jily [4, 8]: 0; Hoechst 33342 nuclear staining score, MRC5 [4, 5]: 0; Hoechst 33342 nuclear staining score, MRC5 [4, 6]: 0; Hoechst 33342 nuclear staining score, MRC5 [4, 7]: 0; Hoechst 33342 nuclear staining score, MRC5 [4, 8]: 0; Hoechst 33342 nuclear staining score, PBLs [4, 5]: 0; Hoechst 33342 nuclear staining score, PBLs [4, 6]: 0; Hoechst 33342 nuclear staining score, PBLs [4, 7]: 0; Hoechst 33342 nuclear staining score, PBLs [4, 8]: 0"
